Data: patent US6833456B2, “Indolyl-urea derivatives of thienopyridines useful as antiangiogenic agents, and methods for their use” (Agouron Pharmaceuticals, Inc., priority 2002, dated 2004)
pIC50, pKi: −log10 of the molar value. Values joined by “and” are separate entries in the source; they are usually repeats but may differ in a detail not shown here. Equal values may be shown once.

Legend:
[1] = tested on: human umbilical vein endothelial cells (HUVEC); test: HUVEC+VEGF proliferation assay; assay type: cell-based; conditions: Homo sapiens, HUVEC, 72 h, VEGF 6 ng/mL, MTT
Description: This assay determines the ability of a test compound to inhibit the growth factor-stimulated proliferation of human umbilical vein endothelial cells (“HUVEC”). HUVEC cells (passage 3-4, Clonetics, Corp.) were thawed into EGM2 culture medium (Clonetics Corp) in T75 flasks. Fresh EGM2 medium was added to the flasks 24 hours later. Four or five days later, cells were exposed to another culture medium (F12K medium supplemented with 10% fetal bovine serum (FBS), 60 μg/mL endothelial cell growth supplement (ECGS), and 0.1 mg/mL heparin). Exponentially-growing HUVEC cells were used in experiments thereafter. Ten to twelve thousand HUVEC cells were plated in 96-well dishes in 100 μl of rich, culture medium (described above). The cells were allowed to attach for 24 hours in this medium. The medium was then removed by aspiration and 105 μl of starvation media (F12K+1% FBS) was added to each well. After 24 hours, 15 μl of test agent dissolved in 1% DMSO in starvation medium or this vehicle alone was added into each treatment well; the final DMSO concentration was 0.1%. One hour later, 30 μl of VEGF (30 ng/mL) in starvation media was added to all wells except those containing untreated controls; the final VEGF concentration was 6 ng/mL. Cellular proliferation was quantified 72 hours later by MTT dye reduction, at which time cells were exposed for 4 hours MTT (Promega Corp.). Dye reduction was stopped by addition of a stop solution (Promega Corp.) and absorbance at 595 nm was determined on a 96-well spectrophotometer plate reader.

[2] = target: T1, unphosphorylated VEGF-R2Δ50 (FLVK) (Homo sapiens, UniProt P35968, DEL940-989/E990V); test: VEGF-R2 coupled spectrophotometric assay, unphosphorylated construct (FLVK); assay type: biochemical; conditions: for inhibition at 0.05 µM: percent inhibition at 50 nM
T1 construct: VEGF-R2Δ50 contains residues 806-939 and 990-1171; made in house; host or cells: baculovirus/insect cell system
T1 sequence (P35968 with tags, fused parts or gaps DEL940-989/E990V limits assumed): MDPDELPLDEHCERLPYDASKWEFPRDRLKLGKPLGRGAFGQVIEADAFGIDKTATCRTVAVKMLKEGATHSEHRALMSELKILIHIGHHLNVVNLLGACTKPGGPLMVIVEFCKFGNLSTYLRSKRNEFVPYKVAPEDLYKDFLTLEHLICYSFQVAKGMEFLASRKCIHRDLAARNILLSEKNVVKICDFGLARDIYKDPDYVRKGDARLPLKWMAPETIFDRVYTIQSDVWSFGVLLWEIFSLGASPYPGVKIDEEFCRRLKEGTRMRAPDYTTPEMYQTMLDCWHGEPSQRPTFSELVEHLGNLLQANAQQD
Text: This construct determines the ability of a test compound to inhibit tyrosine kinase activity. A construct (VEGF-R2Δ50) of the cytosolic domain of human vascular endothelial growth factor receptor 2 (VEGF-R2) lacking the 50 central residues of the 68 residues of the kinase insert domain was expressed in a baculovirus/insect cell system. Of the 1356 residues of full-length VEGF-R2, VEGF-R2Δ50 contains residues 806-939 and 990-1171, and also one point mutation (E990V) within the kinase insert domain relative to wild-type VEGF-R2. Autophosphorylation of the purified construct was performed by incubation of the enzyme at a concentration of 4 μM in the presence of 3 mM ATP and 40 mM MgCl2 in 100 mM HEPES, pH 7.5, containing 5% glycerol and 5 mM DTT, at 4° C. for 2 h. […] See Parast et al., Biochemistry, 37, 16788-16801 (1998).
The production of ADP from ATP that accompanies phosphoryl transfer was coupled to oxidation of NADH using phosphoenolpyruvate (PEP) and a system having pyruvate kinase (PK) and lactic dehydrogenase (LDH). The oxidation of NADH was monitored by following the decrease of absorbance at 340 nm ([…]=6.22 cm^−1 mM^−1) using a Beckman DU 650 spectrophotometer. Assay conditions for phosphorylated VEGF-R2Δ50 (indicated as FLVK-P in the tables below) were the following: 1 mM PEP; 250 μM NADH; 50 units of LDH/mL; 20 units of PK/mL; 5 mM DTT; […]; 1 mM ATP; and 25 mM MgCl2 in 200 mM HEPES, pH 7.5. Assay conditions for unphosphorylated VEGF-R2Δ50 (indicated as FLVK in the tables) were the following: 1 mM PEP; 250 μM NADH; 50 units of LDH/mL; 20 units of PK/mL; 5 mM DTT; […]; 3 mM ATP; and 60 mM MgCl2 and 2 mM MnCl2 in 200 mM HEPES, pH 7.5. Assays were initiated with 5 to 40 nM of enzyme. Ki values were determined by measuring enzyme activity in the presence of varying concentrations of test compounds. The percent inhibition at 50 nm (% inhibition@ 50 nm) was determined by linear least-squares regression analysis of absorbance as a function of time. The binding inhibitions were fitted to equation as described by Morrison. The data were analyzed using Enzyme Kinetic and Kaleidagraph software.

[3] = target: T2, PDGFRβ (Homo sapiens, UniProt P09619); test: PAE-PDGFRβ phosphorylation in PAE-PDGFRB cells assay; assay type: cell-based; conditions: PAE cells overexpressing human PDGFRβ, PDGF-BB stimulated; read-out: PAE PDGFR autophos IC50
T2 construct: expressed in transfected cells; host or cells: porcine aorta endothelial (PAE) cells
T2 sequence (P09619 33-1106): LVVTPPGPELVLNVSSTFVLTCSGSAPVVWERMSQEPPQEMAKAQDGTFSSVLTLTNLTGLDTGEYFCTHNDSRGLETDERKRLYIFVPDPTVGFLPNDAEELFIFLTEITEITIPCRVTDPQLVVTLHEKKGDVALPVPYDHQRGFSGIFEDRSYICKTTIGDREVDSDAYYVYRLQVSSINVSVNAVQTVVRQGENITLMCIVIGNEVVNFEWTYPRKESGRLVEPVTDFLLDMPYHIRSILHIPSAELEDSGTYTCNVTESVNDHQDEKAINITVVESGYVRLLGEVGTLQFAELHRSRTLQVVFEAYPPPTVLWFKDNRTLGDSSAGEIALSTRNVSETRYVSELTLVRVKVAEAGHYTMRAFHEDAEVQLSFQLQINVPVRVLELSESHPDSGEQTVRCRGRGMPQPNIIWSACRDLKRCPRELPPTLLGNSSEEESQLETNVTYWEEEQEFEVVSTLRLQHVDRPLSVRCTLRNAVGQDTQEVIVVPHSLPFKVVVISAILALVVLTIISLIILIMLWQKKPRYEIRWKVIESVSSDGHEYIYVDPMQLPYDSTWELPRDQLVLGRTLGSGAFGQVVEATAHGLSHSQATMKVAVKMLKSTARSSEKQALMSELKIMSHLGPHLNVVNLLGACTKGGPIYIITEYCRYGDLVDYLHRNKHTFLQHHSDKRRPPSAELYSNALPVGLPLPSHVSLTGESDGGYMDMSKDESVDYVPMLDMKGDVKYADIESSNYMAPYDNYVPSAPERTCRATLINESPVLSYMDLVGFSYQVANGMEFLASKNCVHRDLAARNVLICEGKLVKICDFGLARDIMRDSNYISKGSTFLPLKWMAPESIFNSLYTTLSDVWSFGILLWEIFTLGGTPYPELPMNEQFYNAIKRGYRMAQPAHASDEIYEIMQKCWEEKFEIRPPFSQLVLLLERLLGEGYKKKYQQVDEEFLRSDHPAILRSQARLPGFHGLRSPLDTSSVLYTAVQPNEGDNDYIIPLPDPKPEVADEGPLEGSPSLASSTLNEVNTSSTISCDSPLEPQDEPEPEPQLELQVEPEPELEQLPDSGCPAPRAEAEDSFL
Description: This assay determines the ability of a test compound to inhibit the autophosphorylation of PDGFRβ in porcine aorta endothelial (PAE)-PDGFRβ cells. PAE cells that overexpress human PDGFRβ were used in this assay. The cells were cultured in Ham's F12 media supplemented with 10% fetal bovine serum (FBS) and 400 ug/ml G418. Twenty thousands cells were seeded in each well of a 96-well plate in 50 μL of growth media and allowed to attach for 6 hours at 37° C. Cells were then exposed to the starvation media (Ham's F12 media supplemented with 0.1% FBS) for 16 hours. After the starvation period was over, 10 μL of test agent in 5% DMSO in starvation media were added to the test wells and 10 μL of the vehicle (5% DMSO in starvation media) were added into the control wells. The final DMSO concentration in each well was 0.5%. Plates were incubated at 37° C. for 1 hour and the cells were then stimulated with 1 μg/mL PDGF-BB (R & D System) in the presence of 2 mM Na3VO4 for 8 minutes. The cells were washed once with 1 mm Na3VO4 in HBSS and lysed by adding 50 μL per well of lysis buffer. One hundred μL of dilution buffer were then added to each well and the diluted cell lysate was transferred to a 96-well goat ant-rabbit coated plate (Pierce), which was pre-coated with Rabbit anti Human PDGFRβ antibody (Santa Cruz). The plates were incubated at room temperature for 2 hours and washed seven times with 1% Tween 20 in PBS. HRP-PY20 (Santa Cruz) was diluted and added to the plate for a 30-minute incubation. Plates were then washed again and TMB peroxidase substrate (Kirkegaard & Perry) was added for a 10-minute incubation. One hundred μL of 0.09 N H2SO4 was added into each well of the 96-well plate to stop the reaction. Phosphorylation status was assessed by spectrophotometer reading at 450 nm. IC50 values were calculated by curve fitting using a four-parameter analysis.

SMILES	pIC50 [1]	pKi [2]	inhibition at 0.05 µM [2]	pIC50 [3]
CO[C@@H]1CCN(C(=O)c2cc3nccc(Oc4ccc5c(c4)cc(C)n5C(=O)NCC#CC4CC4)c3s2)C1 [Example 4m, 5-[2-(3R-Methoxy-pyrrolidine-1-carbonyl)-thieno[3,2-b]pyridin-7-yloxy]-2-methyl-indole-1-carboxylic acid (3-cyclopropyl-prop-2-ynyl)-amide]	9.43	9.57	99%	8.42
CNC(=O)n1c(C)cc2cc(Nc3ccnc4cc(C(=O)N5C[C@H](OC)[C@@H](OC)C5)sc34)ccc21 [Example 1r, 5-[2-(3S,4S-Dimethoxy-pyrrolidine-1-carbonyl)-thieno[3,2-b]pyridin-7-ylamino]-2-methyl-indole-1-carboxylic acid methylamide]	9.52	9.19	93%	6.81 and 6.92
CNC(=O)n1c(C)cc2cc(Nc3cccc4cc(C(=O)N5C[C@H](O)C[C@H]5CO)sc34)ccc21 [Example 3i, 5-[2-((2S,4R)-4-Hydroxy-2-hydroxymethyl-pyrrolidine-1-carbonyl)-benzo[b]thiophen-7-ylamino]-2-methyl-indole-1-carboxylic acid methylamide]	8.26	8.38	74%	
Cc1cc2cc(Nc3ccnc4cc(C(=O)N5C[C@H](O)C[C@H]5C(C)(C)O)sc34)ccc2n1C(=O)NC1CC1 [Example 3e]	8.31	8.68	87%	
CNC(=O)n1c(C)cc2cc(Nc3ccnc4cc(C(=O)N5CC[C@H](OC)C5)sc34)ccc21 [Example 1g, 5-[2-(3S-Methoxy-pyrrolidine-1-carbonyl)-thieno[3,2-b]pyridin-7-ylamino]-2-methyl-indole-1-carboxylic acid methylamide]	9.00			7.02 and 6.82
CNC(=O)n1c(C)cc2c(F)c(Oc3ccnc4cc(C(=O)N5CCC[C@H]5COC)sc34)ccc21 [Example 5a, 4-Fluoro-5-[2-(2S-methoxymethyl-pyrrolidine-1-carbonyl)-thieno[3,2-b]pyridin-7-yloxy]-2-methyl-indole-1-carboxylic acid methylamide]	9.85	9.80	99%	8.42
CO[C@H]1CCN(C(=O)c2cc3nccc(Oc4ccc5c(c4)cc(C)n5C(=O)NCC#N)c3s2)C1 [Example 9f, 5-[2-(3S-Methoxy-pyrrolidine-1-carbonyl)-thieno[3,2-b]pyridin-7-yloxy]-2-methyl-indole-1-carboxylic acid cyanomethyl-amide]	9.17	9.18	84%	7.89
CCNC(=O)n1c(C)cc2cc(Oc3ccnc4cc(C(=O)N5CC[C@H](O)C5)sc34)ccc21 [Example 9h, 5-[2-(3S-Hydroxy-pyrrolidine-1-carbonyl)-thieno[3,2-b]pyridin-7-yloxy]-2-methyl-indole-1-carboxylic acid ethylamide]	9.05	9.59	99%	7.51
C#CCNC(=O)n1c(C)cc2cc(Nc3ccnc4cc(C(=O)N5CC[C@H](O)C5)sc34)ccc21 [Example 1j, 5-[2-(3S-Hydroxy-pyrrolidine-1-carbonyl)-thieno[3,2-b]pyridin-7-ylamino]-2-methyl-indole-1-carboxylic acid prop-2-ynylamide]	9.83	9.14	96%	
C#CCNC(=O)n1c(C)c(Cl)c2c(F)c(Oc3ccnc4cc(C(=O)N5CC[C@H](OC)C5)sc34)ccc21 [Example 6a, 3-Chloro-4-fluoro-5-[2-(3S-methoxy-pyrrolidine-1-carbonyl)-thieno[3,2-b]pyridin-7-yloxy]-2-methyl-indole-1-carboxylic acid prop-2-ynylamide]	9.37	9.37	98%	7.54
CNC(=O)n1c(C)cc2c(F)c(Oc3ccnc4cc(C(=O)N5CC[C@H](O)C5)sc34)ccc21 [Example 5i, 4-Fluoro-5-[2-(3S-hydroxy-pyrrolidine-1-carbonyl)-thieno[3,2-b]pyridin-7-yloxy]-2-methyl-indole-1-carboxylic acid methylamide]	9.96	9.28	97%	
CNC(=O)n1c(C)cc2cc(Oc3ccnc4cc(C(=O)N5CCC5)sc34)ccc21 [Example 8m, 5-[2-(Azetidine-1-carbonyl)-thieno[3,2-b]pyridin-7-yloxy]-2-methyl-indole-1-carboxylic acid methylamide]	10.08	11.40	99%	8.35
Cc1cc2cc(Oc3ccnc4cc(C(=O)N5CC[C@@H](N(C)C)C5)sc34)ccc2n1C(=O)NCCCO [Example 8i, 5-[(2-{[(3R)-3-(Dimethylamino)pyrrolidin-1-yl]carbonyl}thieno[3,2-b]pyridin-7-yl)oxy]-N-(3-hydroxypropyl)-2-methyl-1H-indole-1-carboxamide]	9.77	9.32	99%	7.59 and 7.47
CO[C@H]1CCN(C(=O)c2cc3nccc(Oc4ccc5c(c4)cc(C)n5C(=O)NCC#CC4CC4)c3s2)C1 [Example 4i, 5-[2-(3S-Methoxy-pyrrolidine-1-carbonyl)-thieno[3,2-b]pyridin-7-yloxy]-2-methyl-indole-1-carboxylic acid (3-cyclopropyl-prop-2-ynyl)-amide]	9.24	8.81	97%	8.26
